US9353067B2, “Heterocyclic compounds and uses thereof in the treatment of sexual disorders” (ATIR Holding S.A., priority 2011, dated 2016)
“And” between values parts separate entries of the source, which are not always exact repeats. Identical values can stand only once.

Tests used:
D2 short receptor = D2 short receptor (Homo sapiens (Human), UniProt P14416); test: Competitive binding to D2 short receptor ([3H]-spiperone), D4/D2 selectivity; details: ratio of concentrations required to inhibit 50% of radioligand binding for each receptor
Description: R-55 (which comprises a 3-hydroxyphenyl moiety) and its isomers L-221 (comprising a 4-hydroxyphenyl moiety) and L-238 (comprising a 2-hydroxyphenyl moiety) were assayed for competitive binding to D2 SHORT and D4.4 type dopamine receptors, in order to assess their efficacy for treating sexual disorders. Both receptor types are expressed as human recombinant proteins in CHO cells, as described, for example, in Jarvis et al. (1973); Van Tol et al. (1991) and Van Tol et al. (1992).
Determination of binding to D2 short receptor was performed using [^3H]-spiperone, a D2 receptor ligand (Gundlach et al., 1984), as a radioligand (20-60 Ci/mmol, 0.2 nM) in the presence of various concentrations of the tested compound. Reactions were carried out in 50 mM TRIS-HCl (pH 7.4) containing 120 mM NaCl, 5 mM KCl, 5 mM MgCl2 and 1 mM EDTA, for 60 minutes at 25° C. The reaction was terminated by rapid vacuum filtration onto glass fiber filters. Radioactivity trapped onto the filters was determined (counted) and compared to control values in order to accurately evaluate any interaction of the test compound(s) with the cloned dopamine D2 short binding site.
Selectivity of R-55 was calculated as the D4/D2 binding ratio, based on the ratio of the concentration required to inhibit 50% of the radioligand binding for each receptor.

[1] = Transdermal administration of R-55 formulation to pigs, plasma R-55; assay type: in vivo, White Landrace female pigs
Description: R-55 and related compounds were assayed in the plasma samples using a Waters (USA) Alliance high performance liquid chromatograph coupled with a Waters Micromass ZQ quadruple mass spectrometer (in ESI+ mode) as a detector with Waters Empower chromatographic and mass spectrometric software for chromatographic data acquisition, processing and instrument control.
The tested compound was extracted from plasma using dichloromethane, followed by concentration by evaporating the extract and dissolution in a low volume chromatographic mobile phase.
The instrument was calibrated using plasma spiked with various concentrations of the tested compound. Enrofloxacin (m/z=360.4) was used as an internal standard.
In order to investigate the feasibility of transdermal administration of R-55, the presence of R-55 in plasma was measured following administration to pigs of the exemplary transdermal formulation described in Example 5.
White Landrace female pigs were acclimatized for 5 days prior to application of the formulation. 50 ml of the formulation (containing 500 mg R-55) was applied over a 15×7 cm area of the skin of each pig, in a single dose. In order to facilitate constant transdermal administration for at least 6 hours, a suitable plastic shield, attached by adhesive plaster, was used to cover the whole treated dermal surface area for six hours.
Clinical observations were performed during the six hours following application.
Blood samples were withdrawn from each pig via a jugular vein catheter at the following time points: immediately prior to application (t=0) and 15 minutes, 30 minutes, 45 minutes, 60 minutes, 90 minutes, 2 hours, 4 hours, and 6 hours post-application. All samples were collected in commercially available, EDTA supplemented test-tubes. Blood samples were stored on crushed ice after collection. Plasma was separated by centrifugation (10 minutes at 3000 rotations per minute), within one hour post-sampling. Each plasma sample was divided into two aliquots before freezing. Plasma samples were then stored at −20° C. until being dispatched for LCMS analysis.

D2 short receptor, sequence (P14416 other isoform, or with tags, fused parts or gaps): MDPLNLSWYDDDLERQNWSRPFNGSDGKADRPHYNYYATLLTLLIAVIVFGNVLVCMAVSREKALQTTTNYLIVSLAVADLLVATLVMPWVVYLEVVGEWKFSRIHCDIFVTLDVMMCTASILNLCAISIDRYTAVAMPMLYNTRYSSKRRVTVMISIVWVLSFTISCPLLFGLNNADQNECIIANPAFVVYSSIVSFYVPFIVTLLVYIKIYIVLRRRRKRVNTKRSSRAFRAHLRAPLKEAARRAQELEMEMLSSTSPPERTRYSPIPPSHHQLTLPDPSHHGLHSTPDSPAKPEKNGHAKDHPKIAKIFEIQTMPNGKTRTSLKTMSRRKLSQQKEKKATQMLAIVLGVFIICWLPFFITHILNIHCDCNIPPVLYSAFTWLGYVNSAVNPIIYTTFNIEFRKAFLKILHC

Selectivity D4/D2 (D2 short receptor): 160
concentration at 0 min ([1]; female, White Landrace, pig, plasma, topical, 500 mg, transdermal 500 mg R-55 (50 ml formulation), 0 minutes (immediately prior to application), individual animals #1-#4): 0 ng/mL
concentration at 30 min ([1]; female, White Landrace, pig, plasma, topical, 500 mg, transdermal 500 mg R-55, 30 minutes after application, individual animals #1-#4): 16.7 ng/mL
concentration at 4 h ([1]; female, White Landrace, pig, plasma, topical, 500 mg, transdermal 500 mg R-55, 4 hours after application, individual animals #1-#4): 0 ng/mL
concentration at 6 h ([1]; female, White Landrace, pig, plasma, topical, 500 mg, transdermal 500 mg R-55, 6 hours after application, individual animals #1-#4): 0 ng/mL
R-55 concentration (plasma) ([1]; transdermal 500 mg R-55 (50 ml formulation), 0 minutes (immediately prior to application), individual animals #1-#4): 0 ng/mL
R-55 concentration (plasma) ([1]; transdermal 500 mg R-55, 15 minutes after application, individual animals #1-#4): 0 ng/ml (3×) and 10.8 ng/ml
R-55 concentration (plasma) ([1]; transdermal 500 mg R-55, 30 minutes after application, individual animals #1-#4): 19.9 ng/mL and 11.8 ng/mL and 15.2 ng/mL
R-55 concentration (plasma) ([1]; transdermal 500 mg R-55, 45 minutes after application, individual animals #1-#4): 0 ng/ml (3×) and 10.5 ng/ml
R-55 concentration (plasma) ([1]; transdermal 500 mg R-55, 4 hours after application, individual animals #1-#4): 0 ng/mL
R-55 concentration (plasma) ([1]; transdermal 500 mg R-55, 6 hours after application, individual animals #1-#4): 0 ng/mL
Clinical observations ([1]; transdermal 500 mg R-55, six hours following application): No clinical abnormalities were observed
duration of relatively stable concentration of R-55 in plasma after administration ([1]; transdermal administration): at least 2 hours
SMILES: O=c1[nH]c(CN2CCN(c3cccc(O)c3)CC2)nc2ccccc12 [Compound R-55, 2-((4-(3-hydroxyphenyl)piperazin-1-yl)methyl)quinazolin-4-one]
R-55 concentration (plasma) ([1]; transdermal 500 mg R-55, 60 minutes after application, individual animals #1-#4): 10.3 ng/ml and 0 ng/ml (2×) and 10.7 ng/ml
R-55 concentration (plasma) ([1]; transdermal 500 mg R-55, 90 minutes after application, individual animals #1-#4): 16.8 ng/ml and 0 ng/ml (2×) and 10.1 ng/ml
R-55 concentration (plasma) ([1]; transdermal 500 mg R-55, 2 hours after application, individual animals #1-#4): 14.8 ng/mL and 11.8 ng/mL and 0 ng/mL and 10.7 ng/mL
